Laboratory results from patent US20180319753A1, “MICROBIOCIDAL OXADIAZOLE DERIVATIVES” (SYNGENTA PARTICIPATIONS AG, priority 2015, published 2018).

Columns and labels:
Phakopsora pachyrhizi = Phakopsora pachyrhizi / soybean / leaf disc preventative (Asian soybean rust); type: in vivo; conditions: foliar, 200 ppm in the applied formulation, soybean leaf disks, inoculated one day after application, assessed 12 to 14 days after application, read-out: disease control compared to untreated control leaf disks
Protocol: Leaf disks or leaf segments of various plant species are cut from plants grown in a greenhouse. The cut leaf disks or segments are placed in multiwell plates (24-well format) onto water agar. The leaf disks are sprayed with a test solution before (preventative) or after (curative) inoculation. Compounds to be tested are prepared as DMSO solutions (max. 10 mg/ml) which are diluted to the appropriate concentration with 0.025% Tween20 just before spraying. The inoculated leaf disks or segments are incubated under defined conditions (temperature, relative humidity, light, etc.) according to the respective test system. A single evaluation of disease level is carried out 3 to 14 days after inoculation, depending on the pathosystem. Percent disease control relative to the untreated check leaf disks or segments is then calculated.
Soybean leaf disks are placed on water agar in multiwell plates (24-well format) and sprayed with the formulated test compound diluted in water. One day after application leaf discs are inoculated by spraying a spore suspension on the lower leaf surface. After an incubation period in a climate cabinet of 24-36 hours in darkness at 20° C. and 75% rh leaf disc are kept at 20° C. with 12 h light/day and 75% rh. The activity of a compound is assessed as percent disease control compared to untreated when an appropriate level of disease damage appears in untreated check leaf disks (12 to 14 days after application).
The following compounds at 200 ppm in the applied formulation give at least 80% disease control in this test when compared to untreated control leaf disks under the same conditions, which show extensive disease development.

[1] = system: Glomerella lagenarium (Colletotrichum lagenarium); assay: Glomerella lagenarium (Colletotrichum lagenarium) liquid culture / cucumber / preventative (anthracnose); type: cell-based; conditions: Colletotrichum orbiculare; 20 ppm in the applied formulation; liquid culture in PDB, 24° C.; 3 to 4 days after application; read-out: disease control compared to untreated control (inhibition of growth measured photometrically)
Protocol: Mycelia fragments or conidia suspensions of a fungus prepared either freshly from liquid cultures of the fungus or from cryogenic storage, are directly mixed into nutrient broth. DMSO solutions of the test compound (max. 10 mg/ml) are diluted with 0.025% Tween20 by a factor of 50 and 10 μl of this solution is pipetted into a microtiter plate (96-well format). The nutrient broth containing the fungal spores/mycelia fragments is then added to give an end concentration of the tested compound. The test plates are incubated in the dark at 24° C. and 96% relative humidity. The inhibition of fungal growth is determined photometrically after 2 to 7 days, depending on the pathosystem, and percent antifungal activity relative to the untreated check is calculated.
Conidia of the fungus from cryogenic storage are directly mixed into nutrient broth (PDB—potato dextrose broth). After placing a (DMSO) solution of test compound into a microtiter plate (96-well format), the nutrient broth containing the fungal spores is added. The test plates are incubated at 24° C. and the inhibition of growth is measured photometrically 3 to 4 days after application.
The following compounds at 20 ppm in the applied formulation give at least 80% disease control in this test when compared to untreated control under the same conditions, which show extensive disease development.

Row | Compound | melting point [°C] | pest or weed control at 200 ppm (Phakopsora pachyrhizi) [%] | inhibition at 20 ppm [1] [%]
1 | FC(F)(F)c1nc(-c2ccc(SCc3ccccc3)cc2)no1 [Compound 1.3, 3-(4-benzylsulfanylphenyl)-5-(trifluoromethyl)-1,2,4-oxadiazole] | 83 to 87 |  | 
2 | FC(F)(F)CSc1ccc(-c2noc(C(F)(F)F)n2)cc1 [Compound 1.4, 3-[4-(2,2,2-trifluoroethylsulfanyl)phenyl]-5-(trifluoromethyl)-1,2,4-oxadiazole] |  | ≥ 80 | 
3 | Fc1cccc(F)c1CSc1ccc(-c2noc(C(F)(F)F)n2)cc1 [Compound 1.6, 3-[4-[(2,6-difluorophenyl)methylsulfanyl]phenyl]-5-(trifluoromethyl)-1,2,4-oxadiazole] |  | ≥ 80 | 
4 | Fc1ccc(Sc2ccc(-c3noc(C(F)(F)F)n3)cc2)cc1 [Compound 1.9, 3-[4-(4-fluorophenyl)sulfanylphenyl]-5-(trifluoromethyl)-1,2,4-oxadiazole] | 64 to 67 | ≥ 80 | 
5 | COc1ccccc1Sc1ccc(-c2noc(C(F)(F)F)n2)cc1 [Compound 1.11, 3-[4-(2-methoxyphenyl)sulfanyl-phenyl]-5-(trifluoromethyl)-1,2,4-oxadiazole] |  | ≥ 80 | 
6 | FC(F)(F)c1nc(-c2ccc(CSc3ccccc3)cc2)no1 [Compound 1.13, 3-[4-(phenylsulfanylmethyl)phenyl]-5-(trifluoromethyl)-1,2,4-oxadiazole] | 86 to 91 | ≥ 80 | 
7 | CC(C)(C)Sc1ccc(-c2noc(C(F)(F)F)n2)cc1 [Compound 1.16, 3-(4-tert-butylsulfanylphenyl)-5-(trifluoromethyl)-1,2,4-oxadiazole] |  |  | ≥ 80
8 | Cc1ccccc1Sc1ccc(-c2noc(C(F)(F)F)n2)cc1 [Compound 1.17, 3-[4-(o-tolylsulfanyl)phenyl]-5-(trifluoromethyl)-1,2,4-oxadiazole] |  | ≥ 80 | 
9 | FC(F)(F)c1nc(-c2ccc(Sc3ccccc3Cl)cc2)no1 [Compound 1.18, 3-[4-(2-chlorophenyl)sulfanylphenyl]-5-(trifluoromethyl)-1,2,4-oxadiazole] |  | ≥ 80 | 
10 | Cc1ccccc1Sc1ccc(-c2noc(C(F)(F)F)n2)cn1 [Compound 1.19, 3-[6-(o-tolylsulfanyl)-3-pyridyl]-5-(trifluoromethyl)-1,2,4-oxadiazole] |  |  | ≥ 80
11 | Fc1ccccc1Sc1ccc(-c2noc(C(F)(F)F)n2)cn1 [Compound 1.20, 3-[6-(2-fluorophenyl)sulfanyl-3-pyridyl]-5-(trifluoromethyl)-1,2,4-oxadiazole] |  | ≥ 80 | ≥ 80
12 | FC(F)(F)c1nc(-c2ccc(SCc3ccccc3)nc2)no1 [Compound 1.21, 3-(6-benzylsulfanyl-3-pyridyl)-5-(trifluoromethyl)-1,2,4-oxadiazole] | 66 to 68 |  | ≥ 80
13 | Cc1cc(-c2noc(C(F)(F)F)n2)ccc1SCc1ccccc1 [Compound 1.22, 3-(4-benzylsulfanyl-3-methyl-phenyl)-5-(trifluoromethyl)-1,2,4-oxadiazole] | 66 to 72 |  | 
14 | Fc1cc(-c2noc(C(F)(F)F)n2)cc(F)c1CSc1ccccc1 [Compound 1.27, 3-[3,5-difluoro-4-(phenylsulfanylmethyl)phenyl]-5-(trifluoromethyl)-1,2,4-oxadiazole] | 50 to 55 |  | ≥ 80
15 | [O-][S+](Cc1ccccc1)c1ccc(-c2noc(C(F)(F)F)n2)cc1 (stereo not shown) [Compound 2.4, 3-(4-benzylsulfinylphenyl)-5-(trifluoromethyl)-1,2,4-oxadiazole] | 178 to 181 |  | ≥ 80
16 | [O-][S+](c1ccc(-c2noc(C(F)(F)F)n2)cc1)c1ccccc1C(F)(F)F (stereo not shown) [Compound 2.21, 5-(trifluoromethyl)-3-[4-[2-(trifluoromethyl)phenyl]sulfinylphenyl]-1,2,4-oxadiazole] | 80 to 86 | ≥ 80 | 
17 | [O-][S+](Cc1ccccc1)c1ccc(-c2noc(C(F)(F)F)n2)cn1 (stereo not shown) [Compound 2.27, 3-(6-benzylsulfinyl-3-pyridyl)-5-(trifluoromethyl)-1,2,4-oxadiazole] | 122 to 125 |  | ≥ 80
18 | [O-][S+](Cc1ccc(-c2noc(C(F)(F)F)n2)c(F)c1)c1ccccc1 (stereo not shown) [Compound 2.30, 3-[4-(benzenesulfinylmethyl)-2-fluoro-phenyl]-5-(trifluoromethyl)-1,2,4-oxadiazole] | 149 to 156 |  | 
19 | O=S(=O)(c1ccc(-c2noc(C(F)(F)F)n2)cc1)c1ccc(F)cc1F [Compound 3.4, 3-[4-(2,4-difluorophenyl)sulfonyl-phenyl]-5-(trifluoromethyl)-1,2,4-oxadiazole] |  | ≥ 80 | ≥ 80
20 | O=S(=O)(CC(F)(F)F)c1ccc(-c2noc(C(F)(F)F)n2)cc1 [Compound 3.5, 3-[4-(2,2,2-trifluoroethylsulfonyl)phenyl]-5-(trifluoromethyl)-1,2,4-oxadiazole] | 117 to 122 |  | ≥ 80
21 | Cc1ccc(C)c(S(=O)(=O)c2ccc(-c3noc(C(F)(F)F)n3)cc2)c1 [Compound 3.6, 3-[4-(2,5-dimethylphenyl)sulfonyl-phenyl]-5-(trifluoromethyl)-1,2,4-oxadiazole] | 118 to 125 |  | ≥ 80
22 | Cc1cc(-c2noc(C(F)(F)F)n2)ccc1S(=O)(=O)c1ccccc1 [Compound 3.8, 3-[4-(benzenesulfonyl)-3-methyl-phenyl]-5-(trifluoromethyl)-1,2,4-oxadiazole] | 117 to 124 |  | ≥ 80
23 | O=S(=O)(Cc1ccc(-c2noc(C(F)(F)F)n2)cc1)c1ccccc1F [Compound 3.11, 3-[4-[(2-fluorophenyl)sulfonylmethyl]phenyl]-5-(trifluoromethyl)-1,2,4-oxadiazole] | 150 to 154 | ≥ 80 | 
24 | CC(C)(C)S(=O)(=O)c1ccc(-c2noc(C(F)(F)F)n2)cc1 [Compound 3.13, 3-(4-tert-butylsulfonylphenyl)-5-(trifluoromethyl)-1,2,4-oxadiazole] | 133 to 136 |  | ≥ 80
25 | CCC(C)CS(=O)(=O)c1ccc(-c2noc(C(F)(F)F)n2)cc1 (stereo not shown) [Compound 3.15, 3-[4-(2-methylbutylsulfonyl)phenyl]-5-(trifluoromethyl)-1,2,4-oxadiazole] | 75 to 80 |  | ≥ 80
26 | O=S(=O)(Cc1ccc(-c2noc(C(F)(F)F)n2)c(F)c1)c1ccccc1 [Compound 3.22, 3-[4-(benzenesulfonylmethyl)-2-fluoro-phenyl]-5-(trifluoromethyl)-1,2,4-oxadiazole] | 172 to 178 | ≥ 80 | 
27 | O=S(=O)(Cc1ccc(-c2noc(C(F)(F)F)n2)c(F)c1F)c1ccccc1 [Compound 3.23, 3-[4-(benzenesulfonylmethyl)-2,3-difluoro-phenyl]-5-(trifluoromethyl)-1,2,4-oxadiazole] | 187 to 191 | ≥ 80 | 
28 | O=S(=O)(Cc1c(F)cc(-c2noc(C(F)(F)F)n2)cc1F)c1ccccc1 [Compound 3.24, 3-[4-(benzenesulfonylmethyl)-3,5-difluoro-phenyl]-5-(trifluoromethyl)-1,2,4-oxadiazole] | 135 to 140 | ≥ 80 | 
